According to patent US20100022559A1, “BISOXIMES AS FUNGICIDES” (BAYER CROPSCIENCE AG, priority 2006, published 2010):
One block for each molecule: values may come before it.

Test: logP determination by HPLC on a reversed-phase column (C 18), EEC Directive 79/831 Annex V.A8
Format: physicochemical
Description: The stated logP values were determined in accordance with EEC Directive 79/831 Annex V.A8 by HPLC (high performance liquid chromatography) on a reversed-phase column (C 18). Temperature: 43° C.

[1] = method marker [a] (footnote not shown), isomer A / isomer B / isomer mixture as noted in the cell
[2] = method marker [b], isomer A / isomer B / isomer mixture as noted in the cell
[3] = [a] acidic range, pH 2.3, 0.1% aqueous phosphoric acid and acetonitrile

logP (value marked [b]): 1.75^[b] (isomer B)
Structure (SMILES): COCc1nc(C(N)=NOC/C=C/CON=C(N)c2nc(COC)c(C)c(COC)n2)nc(COC)c1C (single isomer, unassigned) [compound 769]

logP (value marked [b]): 4.62^[b]
Structure (SMILES): CC(=NOCCCCON=C(C)c1nc(C)c(C)s1)c1cccc(C)n1 [compound 377]

logP (method marked [b] in Table 1): 4.67^[b]
Structure (SMILES): C/C(=N\OCC1(CO/N=C(\C)c2cccc(C)n2)CC(c2cccc(Cl)c2)=NO1)c1cccc(C)n1 [compound 603]

logP (value marked [b]): 2.80^[b]
Structure (SMILES): CC(=NOCC(C)(C)CON=C(C)c1cccc(C)n1)c1cccnc1 [compound 418]

logP (method marked [b] in Table 1): 3.28^[b]
Structure (SMILES): CC(=NOCC1(CON=C(C)c2cc(C)cc(C)n2)CC(c2ccc(Cl)cc2)=NO1)c1cc(C)cc(C)n1 (centres unmarked) [compound 644]

logP (value marked [b]): 3.56^[b] (isomer B)
Structure (SMILES): CC(=NOCCCCON=C(C)c1sc(C)nc1C)c1cccc(C)n1 (single isomer, unassigned) [compound 374]

logP (method marked [a] in Table 1): 1.07^[a]
Structure (SMILES): CC(=NOCC(C)(C)CON=C(C)c1nccn1C)c1nccn1C [compound 576]

chromatographic logP (reversed-phase HPLC column (C 18), HCO2H, HPLC reversed-phase column (C 18), 43° C., read-out: logP (HCO2H)): 2.87
Structure (SMILES): CC(CON1C(=O)c2ccccc2C1=O)CON1C(=O)c2ccccc2C1=O [IX-1, 2,2′-[(2-methylpropane-1,3-diyl)bis(oxy)]bis(1H-isoindole-1,3(2H)-dione)]

logP [1]: 2.29^[a] | logP [2]: 2.43^[b]
Structure (SMILES): CC(=NOCC1(CON=C(C)c2cccc(C)n2)CCO1)c1ccccn1 (racemic) [compound 26]

logP (value marked [a]): 5.98^[a] | logP (value marked [b]): 5.98^[b] | logP (value marked [c]): 6.52^[c]
Structure (SMILES): CC[Si](C)(CON=C(C)c1cccc(C)n1)CON=C(C)c1cccc(C)n1 [Compound 785]

logP (value marked [b]): 4.56^[b]
Structure (SMILES): CC(=NOCCCCCCON=C(c1cccc(C)n1)C1CC1)c1cccc(C)n1 [compound 347]

logP (method marked [b] in Table 1): 2.16^[b]
Structure (SMILES): C=C(CON=Cc1cccc(C)n1)CON=Cc1cccc(C)n1 [compound 667]

logP (method marked [a] in Table 1): 4.10^[a] (isomer A)
Structure (SMILES): Cc1cccc(C(=NOCC(C)CON=C(c2ccccc2)c2cccc(C)n2)c2ccccc2)n1 (single isomer, unassigned) [compound 661]

logP (value marked [b]): 4.72^[b] (isomer B)
Structure (SMILES): CC(=NOCCCCON=C(c1cccc(C)n1)C(C)C)c1cccc(C)n1 [compound 334]

logP [2]: 2.58^[b]
Structure (SMILES): Cc1nc(/C(N)=N/OCCCCO/N=C(\N)c2nc(C)c3c(n2)CCCC3)nc2c1CCCC2 [compound 36]

logP [2]: 2.45^[b]
Structure (SMILES): N/C(=N\OCCCCO/N=C(\N)c1ncc(F)cc1F)c1ncc(F)cc1F [compound 38]

logP (value marked [b]): 4.48^[b] | logP (value marked [c]): 7.23^[c]
Structure (SMILES): CCCC(CON=C(C)c1ccc(C)c(C)n1)CON=C(C)c1ccc(C)c(C)n1 (centres unmarked) [Compound 316]

logP [2]: 2.45^[b]
Structure (SMILES): CC(=NOCC1(CON=C(C)c2cccc(C)n2)COC1)c1cccc(C)n1 [compound 19]

logP [2]: 3.03^[b] (isomer A)
Structure (SMILES): C=C(CON=C(C)c1cccc(C)n1)CON=C(C)c1ncccc1C (single isomer, unassigned) [Compound 203]

logP [1]: 4.45^[a] (isomer A)
Structure (SMILES): Cc1cccc(C(=NOCCCON=C(c2cccc(C)n2)C(C)C)C(C)C)n1 (single isomer, unassigned) [compound 89]

logP (value marked [a]): 6.13^[a] | logP (value marked [b]): 6.13^[b] | logP (value marked [c]): 6.96^[c]
Structure (SMILES): C=CCOC(C)(CON=C(C)c1cccc(C)n1)C(C)ON=C(C)c1cccc(C)n1 (centres unmarked) [compound 872]

logP [1]: 4.00^[a]
Structure (SMILES): Cc1ccc(C(=NOCCCON=C(c2ccc(C)c(C)n2)C(C)C)C(C)C)nc1C (mixture of isomers) [compound 237]

logP [1]: 5.40^[a]
Structure (SMILES): CCC(=NOCC(C)CON=C(CC)c1cccc(C)n1)c1cccc(C)n1 (centres unmarked) [Compound 116]

logP [3]: 0.8^[a] | logP ([b] LC-MS, acidic range, pH 2.7, 0.1% aqueous formic acid and acetonitrile): 0.8^[b] | logP ([c] LC-MS, neutral range, pH 7.8, 0.001 molar aqueous ammonium bicarbonate solution and acetonitrile): 2.89^[c]
Structure (SMILES): C/C(=N\OCC(C)(C)CON)c1cc(C)cc(C)n1 [XII-14]

logP (value marked [b]): 1.93^[b]
Structure (SMILES): CC(=NOCC1(CON=C(C)c2cccc(NCC3CC3)n2)CC1)c1cccc(NCC2CC2)n1 [compound 849]

logP [2]: 2.23^[b]
Structure (SMILES): C=C(CON=C(C)c1cccc(C)n1)CON=C(N)c1ccc(C)n1C [compound 199]

logP (method marked [a] in Table 1): 4.79^[a]
Structure (SMILES): CCC1=NOC(CON=C(c2cccc(C)n2)C(C)C)(CON=C(c2cccc(C)n2)C(C)C)C1 (centres unmarked) [compound 595]

logP (value marked [a]): 3.22^[a] | logP (value marked [b]): 3.22^[b]
Structure (SMILES): C=C(CON=C(C)c1csc(C)n1)CON=C(C)c1csc(C)n1 [compound 522]

logP (method marked [b] in Table 1): 3.40^[b] | logP (method marked [c] in Table 1): 5.07^[c]
Structure (SMILES): CC(=NOCC(CON=C(C)c1nc(C)ccc1C)Cc1ccccc1)c1cccc(C)n1 (centres unmarked) [compound 591]

logP (method marked [b] in Table 1): 2.96^[b] | logP (method marked [c] in Table 1): 6.33^[c]
Structure (SMILES): CC(=NOCC(CON=C(C)c1cc(C)cc(C)n1)c1ccccc1)c1cc(C)cc(C)n1 (centres unmarked) [Compound 554]

logP (method marked [b] in Table 1): 3.76^[b]
Structure (SMILES): CC(=NOCc1ccc(CON=C(C)c2ccccn2)cc1)c1ccccn1 [compound 734]

logP [1]: 3.51^]a] (isomer B)
Structure (SMILES): Cc1cccc(C(=NOCC(C)CON=C(c2cccc(C)n2)C2CC2)C2CC2)n1 (single isomer, unassigned) [Compound 164]

logP (value marked [a]): 3.84^[a]
Structure (SMILES): C=C(CON=C(C#N)c1cccc(C)n1)CON=C(C#N)c1cccc(C)n1 [Compound 784]

logP (value marked [b]): 3.91^[b] | logP (value marked [c]): 7.18^[c]
Structure (SMILES): CCC(C)(CON=C(C)c1cc(C)cc(C)n1)CON=C(C)c1cc(C)cc(C)n1 (centres unmarked) [Compound 794]

logP (method marked [b] in Table 1): 2.18^[b]
Structure (SMILES): CCC(=NOc1ncnc(ON=C(C)c2cccc(C)n2)c1C)c1ncccc1C [compound 739]

logP (value marked [b]): 3.28^[b]
Structure (SMILES): CC(=NOCCCCON=C(c1cccc(C)n1)C1CC1)c1cccc(C)n1 [compound 335]

logP (value marked [b]): 5.31^[b]
Structure (SMILES): C=C(CON=C(C)c1cccc(Cl)c1)CON=C(C)c1cccc(C)n1 [compound 469]

logP [2]: 4.95^[b] (isomer B)
Structure (SMILES): C=C(CON=C(C)c1cccc(C)n1)CON=C(C)c1ncc(C(F)(F)F)cc1Cl (single isomer, unassigned) [compound 135]

logP (value marked [a]): 3.80^[a] | logP (value marked [c]): 6.57^[c]
Structure (SMILES): CC(=NOCC(C)(C)CON=C(C)c1cc(C2CC2)cc(C)n1)c1cccc(C)n1 [Compound 818]

logP (value marked [b]): 5.51^[b]
Structure (SMILES): CC(=NOCC(CON=C(C)c1cccc(C)n1)C(C)(C)C)c1cccc(C)n1 (centres unmarked) [Compound 269]

logP (method marked [b] in Table 1): 3.62^[b] | logP (method marked [c] in Table 1): 6.97^[c]
Structure (SMILES): CC(=NOCC(CON=C(C)c1cc(C)cc(C)n1)Cc1ccccc1)c1cc(C)cc(C)n1 (centres unmarked) [Compound 582]

logP [2]: 2.70^[b]
Structure (SMILES): CC(=NOCCON=C(C)c1sc(C)nc1C)c1sc(C)nc1C [compound 53]

logP (method marked [b] in Table 1): 3.35^[b] | logP (method marked [c] in Table 1): 7.36^[c]
Structure (SMILES): CC(=NOCC1(CON=C(C)c2cc(C)cc(C)n2)CCCC1)c1cc(C)cc(C)n1 [Compound 589]

logP [1]: 6.95^[a]
Structure (SMILES): CC(=NOCCCON=C(C)c1cccc(Cc2ccccc2)n1)c1cccc(Cc2ccccc2)n1 [Compound 131]

logP (value marked [b]): 6.16^[b]
Structure (SMILES): CC(=NOCCCCCCON=C(C)c1ccc(Cl)s1)c1cccc(C)n1 [compound 459]

logP (value marked [b]): 5.65^[b] (isomer B)
Structure (SMILES): C=CCCC(=NOCCCCCCON=C(C)c1cccc(C)n1)c1ncccc1C (single isomer, unassigned) [compound 524]

logP (value marked [b]): 3.61^[b]
Structure (SMILES): CC(=NOCC(C)CON=C(c1cccc(C)n1)C1CC1)c1cccc(C)n1 (centres unmarked) [Compound 429]

logP (value marked [b]): 4.97^b] (isomer )A
Structure (SMILES): CC(=NOCCCCCCON=C(Cc1ccccc1)c1ncccc1C)c1cccc(C)n1 (single isomer, unassigned) [compound 531]

logP (method marked [b] in Table 1): 2.30^[b] | logP (method marked [c] in Table 1): 5.08^[c]
Structure (SMILES): CC(=NOCc1cccc(CON=C(C)c2ccc(C)c(C)n2)n1)c1ccc(C)c(C)n1 [compound 741]

logP (method marked [b] in Table 1): 5.84^[b]
Structure (SMILES): CCC(=NOCC1(CON=C(CC)c2cccc(C)n2)CC(c2ccc(Cl)cc2)=NO1)c1cccc(C)n1 (centres unmarked) [compound 612]

logP (value marked [b]): 3.70^[b]
Structure (SMILES): CC(=NOCC(C)(C)CON=C(C)c1cccc(C)n1)c1cnccn1 [compound 515]

logP [2]: 4.08^[b]
Structure (SMILES): C=C(CON=C(C)c1ccc(Br)nc1)CON=C(C)c1cccc(C)n1 [compound 208]

logP [1]: 5.96^[a]
Structure (SMILES): Cc1cccnc1C(CC(C)C)=NOCCCON=C(CC(C)C)c1ncccc1C [compound 93]

logP (method marked [b] in Table 1): 5.08^[b]
Structure (SMILES): CCC(=NOCC1(CON=C(CC)c2cccc(C)n2)CC(c2ccccc2)=NO1)c1cccc(C)n1 (centres unmarked) [compound 611]

logP (value marked [b]): 3.28^[b]
Structure (SMILES): CC(=NOCC(C)CON=C(C)c1cccc(C)n1)c1cnccn1 (centres unmarked) [compound 507]

logP (method marked [b] in Table 1): 4.38^[b] | logP (method marked [c] in Table 1): 5.97^[c]
Structure (SMILES): CCC(CON=C(C)c1cccc(C)n1)CON=C(C)c1cccc(C)n1 (centres unmarked) [Compound 677]

logP [2]: 5.96^[b]
Structure (SMILES): C=C(CON=C(C)c1cccc(Br)n1)CON=C(C)c1cccc(Br)n1 [compound 150]

logP (value marked [b]): 1.31^[b] | logP (value marked [c]): 2.67^[c]
Structure (SMILES): CC(=NOCC(C)CON=C(C)c1cc(CO)cc(C)n1)c1cc(CO)cc(C)n1 (centres unmarked) [compound 868]

logP (method marked [b] in Table 1): 6.47^[b]
Structure (SMILES): CC(=NOCC(C)(C)CON=C(CC(C)C)c1cccc(C)n1)c1cccc(C)n1 [Compound 538]

logP (value marked [a]): 5.27^[a]
Structure (SMILES): CC(=NOCC(C)CON=C(C)c1cccc(C)n1)c1ccc2c(c1)CC(C)O2 (centres unmarked) [compound 494]

logP (method marked [b] in Table 1): 7.36^[b] | logP (method marked [c] in Table 1): 7.36^[c]
Structure (SMILES): C=C(CON=C(C)c1ccc2ccc(C)cc2n1)CON=C(C)c1ccc2ccc(C)cc2n1 [compound 749]

logP (value marked [b]): 5.97^[b]
Structure (SMILES): CC(=NOCCCCON=C(C)c1cccc(C(C)C)n1)c1cccc(C)n1 [compound 452]

logP (value marked [a]): 4.78^[a]
Structure (SMILES): CC(=NOCC(C)CON=C(C)c1cccc(C#N)n1)c1cccc(C#N)n1 (centres unmarked) [Compound 800]

logP (value marked [b]): 5.36^[b]
Structure (SMILES): C=C(CON=C(C)c1cccc(C(F)(F)F)c1)CON=C(C)c1cccc(C)n1 [compound 399]

logP [1]: 4.79^[a]
Structure (SMILES): CC(=NOCC(C)CON=C(C)c1ccc(Cl)nc1)c1ccc(Cl)nc1 (centres unmarked) [compound 106]

logP [3]: 0.51^[a]
Structure (SMILES): C/C(=N\OCCCCON)c1ccc(C)c(C)n1 [XII-17]

logP (value marked [b]): 5.84^[b] (isomer A)
Structure (SMILES): CC(=NOCCCCCCON=C(C)c1nc(C)c(C)s1)c1cccc(C)n1 (single isomer, unassigned) [compound 389]
